{
  "source": "patent US8552048B2",
  "about": "“Phosphoramidate alkylator prodrugs for the treatment of cancer” (Threshold Pharmaceuticals, Inc., priority 2006, dated 2013)",
  "key": {"H460 xenograft tumor": {"tested_on": "H460 xenograft tumor", "test": "H460 xenograft, TH302 in combination with X-ray radiation", "assay_type": "in vivo, mice", "conditions": "X-ray 1.2 Gy/day for 5 days with TH302 ip 75 mg/kg per day for 5 days, 30 min after each radiation dose; 75 mg/kg/day", "description": "H460 xenograft tumor bearing mice were treated with X-ray radiation (one cycle of 1.2 Gy/day for 5 days) alone and in combination with TH302 (administered ip, 75 mg/kg per day for 5 consecutive days 30 min after each radiation dose). […] The oxygen radicals involved in killing tumor cells, and which are generated by irradiation of oxygen e.g. under normoxic conditions, can not form efficiently under hypoxic conditions."}, "[1]": {"test": "Pharmacokinetics in nude mice", "assay_type": "in vivo", "conditions": "female, mouse, plasma"}, "[2]": {"test": "Pharmacokinetics in Sprague-Dawley rats (single dose i.v. and p.o.)", "assay_type": "in vivo, male Sprague-Dawley rats", "conditions": "male, Sprague-Dawley, rat, rats; for clearance: read-out: CL (converted); for Vd: read-out: Vss; for AUC(0-t): read-out: AUC(0-t); for Cmax: read-out: Cmax; for MRT: read-out: MRT", "description": "Pharmacokinetic studies were performed in male CD-1 (50 mg/kg i.p. or orally (p.o.)) or female nude mice (50 mg/kg i.v. or i.p.), male Sprague-Dawley rats (1, 5, 20 and 50 mg/kg i.v. and 100 mg/kg, p.o.), beagle dogs (20 mg/kg, i.v.) and cynomologus monkeys (20 mg/kg i.v.). Plasma TH302 concentrations were analyzed using a LC/MS method and the pharmacokinetic parameters computed using a noncompartmental method. Interspecies scaling was performed according to standard methods.\nTH302 was dissolved in 50% PEG400/Saline to obtain a final concentration of 25 mg/mL, and then was further diluted to yield 25, 10, 2.5 and 0.5 mg/mL formulations of TH302 (pH The formulations were prepared just before dosing. The concentration of TH302 in dosing solution was confirmed by HPLC-UV. Male Sprague Dawley rats (body weight: 200 g to 230 g) were used in this study. Before the pharmacokinetic studies, animals were randomly assigned to four treatment groups cannulated in the carotid artery for serial blood sampling. All rats were administered a single intravenous bolus dose over one minute via the tail vein. The concentrations of TH302 in plasma were determined using a high performance liquid chromatography/mass spectrometry (HPLC/MS/MS) method. […]"}, "[3]": {"conditions": "in vivo, iv, 1 mg/kg, 1 mg/kg i.v. bolus, MEAN"}, "[4]": {"conditions": "in vivo, iv, 5 mg/kg, 5 mg/kg i.v. bolus, MEAN"}, "[5]": {"conditions": "in vivo, iv, 20 mg/kg, 20 mg/kg i.v. bolus, MEAN"}, "[6]": {"conditions": "in vivo, iv, 20 mg/kg, 20 mg/kg i.v. bolus, individual animals"}, "[7]": {"conditions": "in vivo, iv, 50 mg/kg, 50 mg/kg i.v. bolus, MEAN"}, "[8]": {"conditions": "plasma, iv, 1 mg/kg, 1 mg/kg i.v. bolus, MEAN"}, "[9]": {"conditions": "plasma, iv, 1 mg/kg, 1 mg/kg i.v. bolus, individual animals"}, "[10]": {"conditions": "plasma, iv, 5 mg/kg, 5 mg/kg i.v. bolus, MEAN"}, "[11]": {"conditions": "plasma, iv, 5 mg/kg, 5 mg/kg i.v. bolus, individual animals"}, "[12]": {"conditions": "plasma, iv, 20 mg/kg, 20 mg/kg i.v. bolus, MEAN"}, "[13]": {"conditions": "plasma, iv, 20 mg/kg, 20 mg/kg i.v. bolus, individual animals"}, "[14]": {"conditions": "plasma, iv, 50 mg/kg, 50 mg/kg i.v. bolus, MEAN"}},
  "note": "“Also recorded” adds a separate entry of the source. Read-outs that look alike come from different tables or passages of the source.",
  "data": [
    {"compound": "Cn1c(COP(=O)(NCCBr)NCCBr)cnc1[N+](=O)[O-]", "note": "[TH302]", "values": [
      {"measurement": "effect on anti tumor efficacy of radiation", "setting": "H460 xenograft tumor", "result": "enhances the anti cancer effect of X-ray; also recorded: enhances the anti tumor efficacy of radiation"},
      {"measurement": "Vd", "setting": "[1]; intravenous, 50 mg/kg, read-out: apparent steady-state volume of distribution (Vss)", "result": 0.542, "unit": "L/kg"},
      {"measurement": "clearance", "setting": "[1]; intravenous, 50 mg/kg, read-out: total body clearance (Cl) (converted)", "result": 72.8, "unit": "mL/min/kg"},
      {"measurement": "half-life", "setting": "[1]; iv, 50 mg/kg i.v.", "result": 8.2, "unit": "min"},
      {"measurement": "half-life", "setting": "[1]; po, 50 mg/kg p.o. (so in the source)", "result": 9.7, "unit": "min"},
      {"measurement": "clearance", "setting": "[2]; [3]", "result": 78.2, "unit": "mL/min/kg"},
      {"measurement": "Vd", "setting": "[2]; [3]", "result": 2.05, "unit": "L/kg"},
      {"measurement": "clearance", "setting": "[2]; [4]", "result": 102, "unit": "mL/min/kg"},
      {"measurement": "Vd", "setting": "[2]; [4]", "result": 5.09, "unit": "L/kg"},
      {"measurement": "Vd", "setting": "[2]; in vivo, iv, 5 mg/kg, 5 mg/kg i.v. bolus, individual animals", "result": 2.51, "unit": "L/kg"},
      {"measurement": "clearance", "setting": "[2]; [5]", "result": 102, "unit": "mL/min/kg"},
      {"measurement": "Vd", "setting": "[2]; [5]", "result": 2.29, "unit": "L/kg"},
      {"measurement": "clearance", "setting": "[2]; [6]", "result": 98.5, "unit": "mL/min/kg"},
      {"measurement": "Vd", "setting": "[2]; [6]", "result": 2.29, "unit": "L/kg"},
      {"measurement": "clearance", "setting": "[2]; [7]", "result": 98.5, "unit": "mL/min/kg"},
      {"measurement": "Vd", "setting": "[2]; [7]", "result": 1.67, "unit": "L/kg"},
      {"measurement": "half-life", "setting": "[2]; in vivo, iv, 1 mg/kg i.v. bolus, MEAN, read-out: T1/2 (converted)", "result": 2.03, "unit": "h"},
      {"measurement": "half-life", "setting": "[2]; in vivo, iv, 5 mg/kg i.v. bolus, MEAN, read-out: T1/2 (converted)", "result": 3.75, "unit": "h"},
      {"measurement": "half-life", "setting": "[2]; in vivo, iv, 20 mg/kg i.v. bolus, MEAN, read-out: T1/2 (converted)", "result": 4.37, "unit": "h"},
      {"measurement": "half-life", "setting": "[2]; in vivo, iv, 50 mg/kg i.v. bolus, MEAN, read-out: T1/2 (converted)", "result": 1.32, "unit": "h"},
      {"measurement": "bioavailability", "setting": "[2]; in vivo, po, 100 mg/kg p.o., read-out: absolute oral bioavailability", "result": 77.3, "unit": "%"},
      {"measurement": "half-life", "setting": "[2]; in vivo, po, after p.o. dosing 100 mg/kg, read-out: terminal plasma t1/2 (converted)", "result": 1.59, "unit": "h"},
      {"measurement": "AUC(0-inf)", "setting": "[2]; [8]", "result": 221, "unit": "ng·h/mL"},
      {"measurement": "AUC(0-t)", "setting": "[2]; [8]", "result": 217, "unit": "ng·h/mL"},
      {"measurement": "Cmax", "setting": "[2]; [8]", "result": 802, "unit": "ng/mL"},
      {"measurement": "MRT", "setting": "[2]; [8]", "result": 0.89, "unit": "h"},
      {"measurement": "AUC(0-inf)", "setting": "[2]; [9]", "result": 178, "unit": "ng·h/mL"},
      {"measurement": "AUC(0-t)", "setting": "[2]; [9]", "result": 175, "unit": "ng·h/mL"},
      {"measurement": "clearance", "setting": "[2]; [9]", "result": 93.3, "unit": "mL/min/kg"},
      {"measurement": "Cmax", "setting": "[2]; [9]", "result": 683, "unit": "ng/mL"},
      {"measurement": "MRT", "setting": "[2]; [9]", "result": 0.95, "unit": "h"},
      {"measurement": "half-life", "setting": "[2]; plasma, iv, 1 mg/kg, 1 mg/kg i.v. bolus, individual animals, read-out: T1/2 (converted)", "result": 1.75, "unit": "h"},
      {"measurement": "Vd", "setting": "[2]; [9]", "result": 1.83, "unit": "L/kg"},
      {"measurement": "AUC(0-inf)", "setting": "[2]; [10]", "result": 826, "unit": "ng·h/mL"},
      {"measurement": "AUC(0-t)", "setting": "[2]; [10]", "result": 799, "unit": "ng·h/mL"},
      {"measurement": "Cmax", "setting": "[2]; [10]", "result": 3820, "unit": "ng/mL"},
      {"measurement": "MRT", "setting": "[2]; [10]", "result": 0.9, "unit": "h"},
      {"measurement": "AUC(0-inf)", "setting": "[2]; [11]", "result": 732, "unit": "ng·h/mL"},
      {"measurement": "AUC(0-t)", "setting": "[2]; [11]", "result": 730, "unit": "ng·h/mL"},
      {"measurement": "clearance", "setting": "[2]; [11]", "result": 114, "unit": "mL/min/kg"},
      {"measurement": "Cmax", "setting": "[2]; [11]", "result": 3840, "unit": "ng/mL"},
      {"measurement": "Vd", "setting": "[2]; [11]", "result": 7.68, "unit": "L/kg"},
      {"measurement": "AUC(0-inf)", "setting": "[2]; [12]", "result": 3310, "unit": "ng·h/mL"},
      {"measurement": "AUC(0-t)", "setting": "[2]; [12]", "result": 3270, "unit": "ng·h/mL"},
      {"measurement": "Cmax", "setting": "[2]; [12]", "result": 13500, "unit": "ng/mL"},
      {"measurement": "MRT", "setting": "[2]; [12]", "result": 0.59, "unit": "h"},
      {"measurement": "AUC(0-inf)", "setting": "[2]; [13]", "result": 2920, "unit": "ng·h/mL"},
      {"measurement": "AUC(0-t)", "setting": "[2]; [13]", "result": 2830, "unit": "ng·h/mL"},
      {"measurement": "clearance", "setting": "[2]; [13]", "result": 114, "unit": "mL/min/kg"},
      {"measurement": "Cmax", "setting": "[2]; [13]", "result": 13400, "unit": "ng/mL"},
      {"measurement": "Vd", "setting": "[2]; [13]", "result": 2.89, "unit": "L/kg"},
      {"measurement": "AUC(0-inf)", "setting": "[2]; [14]", "result": 8470, "unit": "ng·h/mL"},
      {"measurement": "AUC(0-t)", "setting": "[2]; [14]", "result": 8460, "unit": "ng·h/mL"},
      {"measurement": "Cmax", "setting": "[2]; [14]", "result": 35500, "unit": "ng/mL"}
    ]}
  ]
}
